Entries after “also recorded” stand apart in the source; their conditions may differ.
What was measured:
rat A3 receptors = biological target: T1, rat A3 receptors (Rattus norvegicus, UniProt P28647); test: Radioligand binding, [125I]AB-MECA, CHO cells; settings: means±SEM, N=3-4
T1 construct: expressed in transfected cells; host or cells: CHO cells (stably transfected)
T1 sequence (P28647 1-320): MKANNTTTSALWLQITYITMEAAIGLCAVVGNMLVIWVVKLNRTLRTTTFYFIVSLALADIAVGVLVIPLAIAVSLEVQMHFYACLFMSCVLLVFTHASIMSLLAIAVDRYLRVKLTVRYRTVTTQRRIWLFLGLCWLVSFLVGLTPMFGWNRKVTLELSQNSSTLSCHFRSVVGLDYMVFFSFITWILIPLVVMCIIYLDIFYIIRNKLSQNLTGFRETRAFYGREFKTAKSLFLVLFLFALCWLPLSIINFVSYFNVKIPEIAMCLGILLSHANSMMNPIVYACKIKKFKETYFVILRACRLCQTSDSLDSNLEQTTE

[1] = biological target: T2, human A2B adenosine receptor (Homo sapiens, UniProt P29275); test: Potency at human A2B adenosine receptor; type: binding; settings: at 10 μM
T2 construct: expressed in transfected cells; host or cells: CHO cells (stably transfected)
T2 sequence (P29275 1-332): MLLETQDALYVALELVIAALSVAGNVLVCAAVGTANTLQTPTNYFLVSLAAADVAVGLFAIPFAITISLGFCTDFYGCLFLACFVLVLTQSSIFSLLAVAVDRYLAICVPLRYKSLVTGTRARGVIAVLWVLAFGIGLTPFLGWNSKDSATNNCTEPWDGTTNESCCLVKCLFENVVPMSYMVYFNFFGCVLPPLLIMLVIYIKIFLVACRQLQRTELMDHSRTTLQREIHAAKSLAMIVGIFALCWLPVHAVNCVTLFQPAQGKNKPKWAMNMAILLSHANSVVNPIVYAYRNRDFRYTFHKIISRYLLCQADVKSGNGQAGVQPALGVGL

mouse IOP [2] = test: Mouse IOP after topical application, non-invasive pneumotonometry; type: in vivo, Black Swiss mice
How it was run: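 Black Swiss outbred mice (7-9 weeks, mixed sex) under intraperitoneal ketamine plus topical proparacaine 0.5%. Drugs applied topically as […] droplets three times, containing <2% DMSO and 0.0005% benzalkonium chloride; IOP measured non-invasively by pneumotonometry at 10-min intervals from a stereotactically fixed probe position.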

mouse IOP [3] = test: Mouse IOP after topical application, invasive servo-null micropipette system (SNMS); type: in vivo, Black Swiss mice; settings: for Δ(IOP) Servo-Null: endpoint 10 min
How it was run: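 Black Swiss outbred mice, 7-9 weeks, under i.p. ketamine plus topical proparacaine. Drugs applied topically as droplets with <2% DMSO (none for hydrophilic compounds) and 0.0005% benzalkonium chloride, 295-300 mOsm. IOP measured invasively by servo-null micropipette 10 min after a single application.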

[4] = Dye penetration into the anterior chamber with or without corneal impalement; type: in vivo, mouse; settings: 0.003% droplet, 5 min, impaled eyes
Method: Whether drug penetration into the eye was influenced by corneal impalement by a micropipette was further tested by topically applying a […] containing 0.003% carboxyfluorescein ([…]) to both eyes of two mice. Carboxyfluorescein is a highly polar molecule that crosses the barrier layers of the eye poorly. In each mouse, an exploring micropipette was first advanced into the aqueous humor of one eye while the companion eye was not impaled. After 5 min, the dye was washed out with isotonic saline.

human A3 receptors = biological target: T3, human A3 receptors (Homo sapiens, UniProt P0DMS8); settings: literature; read-out: Ki for the binding to human A3 receptors; cited from earlier work
T3 sequence (P0DMS8 1-318): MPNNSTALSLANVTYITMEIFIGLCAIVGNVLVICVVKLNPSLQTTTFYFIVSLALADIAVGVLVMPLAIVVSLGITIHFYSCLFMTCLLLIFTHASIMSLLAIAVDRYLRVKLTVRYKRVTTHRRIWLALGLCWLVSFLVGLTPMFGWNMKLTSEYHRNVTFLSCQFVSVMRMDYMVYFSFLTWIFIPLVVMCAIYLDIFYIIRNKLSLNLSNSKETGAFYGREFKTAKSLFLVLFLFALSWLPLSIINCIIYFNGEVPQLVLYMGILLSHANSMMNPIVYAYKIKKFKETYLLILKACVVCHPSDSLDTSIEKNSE

[5] = tested on: HCE (human ciliary epithelial) cell line, NPE cells; test: Cell volume in isosmotic solution (isosmotic shrinkage), Coulter Counter; type: cell-based; settings: 10 μM adenosine; 2 min preincubation with 300 nM MRS-1097, 100 nM MRS-1191 or 100 nM MRS-1523
Method: Cell Culture The HCE (human ciliary epithelial) cell line (Carre et al., supra, 1997) is an immortalized NPE cell line obtained from primary cultures of adult human epithelium. […] Eye Res. 57:3057-3063 (1993); Yantorno et al., Exp. Eye Res. 49:423-437 (1989)). […] Cells were passaged every 6-7 days and were studied 8-13 days after passage, after reaching confluence. An immortalized PE-cell line from a primary culture of bovine pigmented ciliary epithelium were also grown under matching conditions. Measurement of Cell Volume in Isosmotic Solution: The volume of PE and NPE cells was measured, since the movement of fluid underlies a change in PE and NPE cell volume, respectively. This is also thought to be the same as the movement of fluid which underlines the secretion of aqueous humor (FIG. 1). […] Parallel aliquots of cells were studied on the same day. One aliquot usually served as a control, and the others were exposed to different experimental conditions at the time of suspension. The same amount of solvent vehicle (dimethylformamide, DMSO or ethanol) was always added to the control and experimental aliquots. […] Cell volumes of isosmotic suspensions were measured with a Coulter Counter (model ZBI-Channelyzer II), using a 100 μm aperture (Civan et al., supra, 1994). As previously described (Wax et al., supra, 1993), the cell volume (vC) of the suspension was taken as the peak of the distribution function. Cell shrinkage was fit as a function of time (t) to a monoexpenential function: […]^0^)/τ] {1) where v∞ is the steady-state cell volume, v0 is the cell volume at the first point (t0) of the time course to be fit, and τ is the time constant of the shrinkage. For purposes of data reduction, the data were normalized to the first time point, taken to be 100% isotonic volume. Fits were obtained by nonlinear least-squares regression analysis, permitting both v∞ and τ to be variables. […] Med. Chem. 37:636-646 (1994; Jacobson et al., supra, 1995; Jacobson et al., FEBS Lett. 336:57-60 (1993)).

human A1 receptors = biological target: T4, human A1 receptors (Homo sapiens, UniProt P30542); settings: literature; read-out: Ki for the binding to human A1 receptors; cited from earlier work
T4 sequence (P30542 1-326): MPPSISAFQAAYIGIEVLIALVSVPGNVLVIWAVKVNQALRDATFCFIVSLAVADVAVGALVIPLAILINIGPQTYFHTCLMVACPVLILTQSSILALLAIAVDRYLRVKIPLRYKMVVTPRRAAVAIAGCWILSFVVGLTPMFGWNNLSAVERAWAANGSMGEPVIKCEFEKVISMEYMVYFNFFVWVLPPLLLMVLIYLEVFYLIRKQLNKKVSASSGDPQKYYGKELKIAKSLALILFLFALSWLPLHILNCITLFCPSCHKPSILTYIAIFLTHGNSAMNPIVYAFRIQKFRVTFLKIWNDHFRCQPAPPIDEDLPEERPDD

human A2A receptors = human A2A receptors (Homo sapiens, UniProt P29274); settings: literature; read-out: Ki for the binding to human A2A receptors; cited from earlier work
human A2A receptors, sequence (P29274 whole entry): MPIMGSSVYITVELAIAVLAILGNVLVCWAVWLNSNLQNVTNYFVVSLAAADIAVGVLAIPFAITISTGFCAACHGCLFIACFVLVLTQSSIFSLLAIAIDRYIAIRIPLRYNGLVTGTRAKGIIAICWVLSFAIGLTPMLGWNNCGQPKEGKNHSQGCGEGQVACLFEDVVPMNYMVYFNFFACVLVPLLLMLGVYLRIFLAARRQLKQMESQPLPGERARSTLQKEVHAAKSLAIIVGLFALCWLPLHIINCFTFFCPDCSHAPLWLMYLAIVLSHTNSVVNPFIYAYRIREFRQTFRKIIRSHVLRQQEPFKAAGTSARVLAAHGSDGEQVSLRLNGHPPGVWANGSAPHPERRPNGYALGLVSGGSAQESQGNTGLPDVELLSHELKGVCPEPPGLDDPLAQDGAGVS

Molecule: OC1CSC(n2cnc3c(NCc4cccc(I)c4)nc(Cl)nc32)C1O (stereo not shown) [MRS-3820, 2-(2-chloro-6-(3-iodobenzylamino)-9H-purin-9-yl)tetrahydrothiophene-3,4-diol]
- Ki (rat A3 receptors): 0.0039 ± 0.0012 µM
- potency at A2B [1]: < 10%
- time to significant reduction of non-invasively measured IOP (mouse IOP [2]; 250 μM droplet): ≤ 20 min
- reduction in IOP 30 minutes post-administration (mouse IOP [2]; 250 μM droplet, normal mice, non-invasive, baseline 16.7±1.1): 4.2±0.7 mmHg
- reduction in IOP 20 min following application (mouse IOP [2]; 250 μM, non-invasive): 3.4±0.7 mm Hg
- Δ(IOP) Pneumotonometer (mouse IOP [2]; topical droplets 25 μM (0.2% DMSO), 30 min): −0.6 ± 1.5 mm Hg
- Δ(IOP) Servo-Null (mouse IOP [3]; topical droplet 5 μM (0.2% DMSO)): −2.2 ± 0.7 mm Hg
- Δ(IOP) Servo-Null (mouse IOP [3]; topical droplet 25 μM (0.2% DMSO)): −4.9 ± 1.7 mm Hg
- Δ(IOP) Servo-Null (mouse IOP [3]; topical droplet 75 μM (0.6% DMSO)): −3.1 ± 1.4 mm Hg
- Δ(IOP) Servo-Null (mouse IOP [3]; topical droplet 250 μM (2% DMSO)): −1.5 ± 0.6 mm Hg

Molecule: carboxyfluorescein
- fluorescence in the anterior chamber [4]: Green fluorescence was observed in the anterior chamber of the impaled mouse eyes

Molecule: CCCOC(=O)c1c(-c2ccccc2)nc(CC)c(C(=O)SCC)c1CCC [MRS-1523]
- Ki (human A3 receptors): 0.019 µM
- effect of A3 antagonist on adenosine-stimulated isotonic shrinkage of NPE cells [5]: prevented the characteristic shrinkage; also recorded: blocked the shrinkage; also recorded: eliminated the actions of adenosine
- Ki (human A1 receptors): 15.6 µM
- Ki (human A2A receptors): 2.05 µM
- effect on IOP in the mouse (in words) (mouse IOP [3]; tested by the inventors, technique not given): found to lower IOP in the mouse

— US20090258836A1, “EFFECTIVE DELIVERY OF CROSS-SPECIES A3 ADENOSINE-RECEPTOR ANTAGONISTS TO REDUCE INTRAOCULAR PRESSURE” (The Trustees of The University of Pennsylvania, priority 2006, published 2009)
